Assays:
[1] = target: Serine/threonine-protein kinase Nek9 (Homo sapiens) (UniProt Q8TD19); test: Inhibition of human NEK9 assessed as residual activity at 1 uM using casein as substrate by [gamma-33P]-ATP assay relative to control
[2] = target: Serine/threonine-protein kinase Nek3 (Homo sapiens) (UniProt P51956); test: Inhibition of human NEK3 assessed as residual activity at 1 uM using MBP as substrate by [gamma-33P]-ATP assay relative to control
[3] = target: CDK18/Cyclin Y (Homo sapiens) (UniProt Q07002+Q8ND76); test: Inhibition of human CDK18/cyclin-Y assessed as residual activity at 1 uM using RB protein as substrate by [gamma-33P]-ATP assay relative to control; assay type: protein-complex assay
[4] = target: Serine/threonine-protein kinase N1 (Homo sapiens) (UniProt Q16512); test: Inhibition of human PKN1 assessed as residual activity at 1 uM using KKLNRTLSVA as substrate by [gamma-33P]-ATP assay relative to control
[5] = target: Serine/threonine-protein kinase WNK3 (Homo sapiens, UniProt Q9BYP7); test: Inhibition of human WNK3 assessed as residual activity at 1 uM using MBP as substrate by [gamma-33P]-ATP assay relative to control
[6] = target: Glycogen synthase kinase-3 beta (Homo sapiens) (UniProt P49841); test: Inhibition of human GSK3B assessed as residual activity at 1 uM using YRRAAVPPSPSLSRHSSPHQ(pS)EDEEE as substrate by [gamma-33P]-ATP assay relative to control
[7] = target: CDK2/Cyclin O (Homo sapiens) (UniProt P24941+P22674); test: Inhibition of human CDK2/cyclin-O assessed as residual activity at 1 uM using histone H1 as substrate by [gamma-33P]-ATP assay relative to control; assay type: protein-complex assay
[8] = target: Tyrosine-protein kinase JAK1 (Homo sapiens) (UniProt P23458); test: Inhibition of human JAK1 assessed as residual activity at 1 uM using poly[Glu:Tyr] (4:1) as substrate by [gamma-33P]-ATP assay relative to control
[9] = target: Platelet-derived growth factor receptor beta (Homo sapiens) (UniProt P09619); test: Inhibition of human PDGFRbeta assessed as residual activity at 1 uM using poly[Glu:Tyr] (4:1) as substrate by [gamma-33P]-ATP assay relative to control
[10] = target: Serine/threonine-protein kinase ULK3 (Homo sapiens) (UniProt Q6PHR2); test: Inhibition of human ULK3 assessed as residual activity at 1 uM using MBP as substrate by [gamma-33P]-ATP assay relative to control
[11] = target: Calcium/calmodulin-dependent protein kinase type 1B (Homo sapiens) (UniProt Q6P2M8); test: Inhibition of human CAMK1B assessed as residual activity at 1 uM using KKALRRQETVDAL as substrate by [gamma-33P]-ATP assay relative to control
[12] = target: T1, Serine/threonine-protein kinase A-Raf (Homo sapiens) (UniProt P10398); test: Inhibition of human ARAF assessed as residual activity at 1 uM using MEK1 as substrate by [gamma-33P]-ATP assay relative to control
T1 sequence (whole entry): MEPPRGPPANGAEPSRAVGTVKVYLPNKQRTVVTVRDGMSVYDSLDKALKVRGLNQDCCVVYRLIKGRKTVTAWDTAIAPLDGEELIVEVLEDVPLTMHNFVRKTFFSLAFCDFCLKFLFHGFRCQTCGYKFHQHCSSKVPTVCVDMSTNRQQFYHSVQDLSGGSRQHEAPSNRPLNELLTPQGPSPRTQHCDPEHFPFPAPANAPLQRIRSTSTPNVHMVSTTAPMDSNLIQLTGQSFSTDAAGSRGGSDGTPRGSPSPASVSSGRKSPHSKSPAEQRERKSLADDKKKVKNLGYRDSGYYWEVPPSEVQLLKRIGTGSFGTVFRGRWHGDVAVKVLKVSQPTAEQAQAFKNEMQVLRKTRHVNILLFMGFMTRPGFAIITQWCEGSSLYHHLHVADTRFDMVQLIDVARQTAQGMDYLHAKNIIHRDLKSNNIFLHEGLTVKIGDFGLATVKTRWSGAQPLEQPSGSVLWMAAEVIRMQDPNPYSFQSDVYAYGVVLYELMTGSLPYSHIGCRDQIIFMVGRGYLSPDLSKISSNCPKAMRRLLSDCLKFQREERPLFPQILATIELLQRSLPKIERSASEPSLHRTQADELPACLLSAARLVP

[13] = target: Ephrin type-B receptor 3 (Homo sapiens) (UniProt P54753); test: Inhibition of human EPHB3 assessed as residual activity at 1 uM using poly[Glu:Tyr] (4:1) as substrate by [gamma-33P]-ATP assay relative to control
[14] = target: Aurora kinase C (Homo sapiens) (UniProt Q9UQB9); test: Inhibition of human Aurora C assessed as residual activity at 1 uM using [H-LRRASLG] as substrate by [gamma-33P]-ATP assay relative to control
[15] = target: cAMP-dependent protein kinase catalytic subunit PRKX (Homo sapiens) (UniProt P51817); test: Inhibition of human PRKX assessed as residual activity at 1 uM using LRRASLG as substrate by [gamma-33P]-ATP assay relative to control
[16] = target: Dual specificity protein kinase CLK3 (Homo sapiens) (UniProt P49761); test: Inhibition of human CLK3 assessed as residual activity at 1 uM using MBP as substrate by [gamma-33P]-ATP assay relative to control
[17] = target: T2, Serine/threonine-protein kinase Chk1 (Homo sapiens) (UniProt O14757); test: Inhibition of CHK1 phosphorylation at S345 residue in human FOLFOX-resistant HCT116 cells after 24 hrs by Western blot analysis
T2 sequence (whole entry): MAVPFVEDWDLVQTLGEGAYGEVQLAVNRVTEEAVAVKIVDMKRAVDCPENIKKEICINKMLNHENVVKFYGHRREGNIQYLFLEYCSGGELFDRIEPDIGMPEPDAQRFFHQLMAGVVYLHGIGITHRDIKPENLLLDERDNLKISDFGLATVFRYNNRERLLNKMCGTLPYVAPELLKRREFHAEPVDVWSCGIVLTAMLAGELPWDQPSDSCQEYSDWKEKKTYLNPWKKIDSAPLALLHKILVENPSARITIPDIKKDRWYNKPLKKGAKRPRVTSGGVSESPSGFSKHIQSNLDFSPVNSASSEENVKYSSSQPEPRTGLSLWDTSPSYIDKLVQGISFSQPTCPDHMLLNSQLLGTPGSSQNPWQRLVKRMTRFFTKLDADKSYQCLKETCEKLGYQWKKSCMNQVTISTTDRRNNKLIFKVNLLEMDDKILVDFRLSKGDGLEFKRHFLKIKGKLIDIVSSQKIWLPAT

[18] = target: High affinity nerve growth factor receptor (Homo sapiens) (UniProt P04629); test: Inhibition of human TRKA assessed as residual activity at 1 uM using poly[Glu:Tyr] (4:1) as substrate by [gamma-33P]-ATP assay relative to control

Sequence of Serine/threonine-protein kinase WNK3 (Q9BYP7 whole entry): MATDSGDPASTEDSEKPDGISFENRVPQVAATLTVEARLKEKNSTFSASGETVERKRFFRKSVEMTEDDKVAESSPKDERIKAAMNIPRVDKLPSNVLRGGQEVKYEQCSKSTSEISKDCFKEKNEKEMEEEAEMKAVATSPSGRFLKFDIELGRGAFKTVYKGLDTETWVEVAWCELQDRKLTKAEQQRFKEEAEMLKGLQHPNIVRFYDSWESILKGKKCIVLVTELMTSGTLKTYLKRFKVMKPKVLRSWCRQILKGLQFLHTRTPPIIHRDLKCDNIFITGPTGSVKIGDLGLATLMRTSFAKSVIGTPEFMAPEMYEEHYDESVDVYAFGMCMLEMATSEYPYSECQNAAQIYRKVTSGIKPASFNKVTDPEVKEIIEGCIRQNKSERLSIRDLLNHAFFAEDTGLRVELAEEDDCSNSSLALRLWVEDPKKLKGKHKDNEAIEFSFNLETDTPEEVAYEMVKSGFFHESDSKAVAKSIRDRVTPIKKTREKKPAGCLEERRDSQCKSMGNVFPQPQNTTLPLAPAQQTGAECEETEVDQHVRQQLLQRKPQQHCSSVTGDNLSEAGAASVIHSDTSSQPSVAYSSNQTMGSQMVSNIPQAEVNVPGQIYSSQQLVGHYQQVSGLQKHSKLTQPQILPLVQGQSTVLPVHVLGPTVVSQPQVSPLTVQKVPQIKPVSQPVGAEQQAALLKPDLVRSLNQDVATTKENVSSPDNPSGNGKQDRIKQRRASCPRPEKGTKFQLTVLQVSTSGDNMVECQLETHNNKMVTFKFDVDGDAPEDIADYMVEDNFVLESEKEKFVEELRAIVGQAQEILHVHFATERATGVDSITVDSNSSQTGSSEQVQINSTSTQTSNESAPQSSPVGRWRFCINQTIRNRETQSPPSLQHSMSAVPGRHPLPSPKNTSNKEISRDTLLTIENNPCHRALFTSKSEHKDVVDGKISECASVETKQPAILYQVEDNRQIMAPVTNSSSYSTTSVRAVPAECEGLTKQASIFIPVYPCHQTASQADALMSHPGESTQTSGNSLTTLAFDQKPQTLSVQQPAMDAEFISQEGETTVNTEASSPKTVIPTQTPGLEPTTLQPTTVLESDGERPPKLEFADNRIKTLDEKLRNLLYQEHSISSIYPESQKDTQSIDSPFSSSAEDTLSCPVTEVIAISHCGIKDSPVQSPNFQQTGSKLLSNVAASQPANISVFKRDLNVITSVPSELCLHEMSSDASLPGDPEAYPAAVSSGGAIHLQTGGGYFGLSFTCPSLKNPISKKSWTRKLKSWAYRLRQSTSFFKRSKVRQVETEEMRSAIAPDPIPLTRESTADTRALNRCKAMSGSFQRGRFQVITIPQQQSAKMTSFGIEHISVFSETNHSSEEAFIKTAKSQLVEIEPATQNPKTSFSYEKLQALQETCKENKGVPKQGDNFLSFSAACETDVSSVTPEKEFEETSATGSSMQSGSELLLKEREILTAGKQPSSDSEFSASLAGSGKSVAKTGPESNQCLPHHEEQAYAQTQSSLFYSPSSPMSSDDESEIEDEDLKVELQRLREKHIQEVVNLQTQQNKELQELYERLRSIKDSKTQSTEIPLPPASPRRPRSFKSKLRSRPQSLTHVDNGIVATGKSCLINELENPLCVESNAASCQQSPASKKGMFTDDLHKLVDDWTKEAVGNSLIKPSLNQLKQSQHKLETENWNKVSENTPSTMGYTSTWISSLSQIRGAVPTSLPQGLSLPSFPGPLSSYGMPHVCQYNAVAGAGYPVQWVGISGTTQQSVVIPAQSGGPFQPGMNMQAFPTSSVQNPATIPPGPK
Sequence of Serine/threonine-protein kinase Nek9 (Homo sapiens) (Q8TD19 whole entry): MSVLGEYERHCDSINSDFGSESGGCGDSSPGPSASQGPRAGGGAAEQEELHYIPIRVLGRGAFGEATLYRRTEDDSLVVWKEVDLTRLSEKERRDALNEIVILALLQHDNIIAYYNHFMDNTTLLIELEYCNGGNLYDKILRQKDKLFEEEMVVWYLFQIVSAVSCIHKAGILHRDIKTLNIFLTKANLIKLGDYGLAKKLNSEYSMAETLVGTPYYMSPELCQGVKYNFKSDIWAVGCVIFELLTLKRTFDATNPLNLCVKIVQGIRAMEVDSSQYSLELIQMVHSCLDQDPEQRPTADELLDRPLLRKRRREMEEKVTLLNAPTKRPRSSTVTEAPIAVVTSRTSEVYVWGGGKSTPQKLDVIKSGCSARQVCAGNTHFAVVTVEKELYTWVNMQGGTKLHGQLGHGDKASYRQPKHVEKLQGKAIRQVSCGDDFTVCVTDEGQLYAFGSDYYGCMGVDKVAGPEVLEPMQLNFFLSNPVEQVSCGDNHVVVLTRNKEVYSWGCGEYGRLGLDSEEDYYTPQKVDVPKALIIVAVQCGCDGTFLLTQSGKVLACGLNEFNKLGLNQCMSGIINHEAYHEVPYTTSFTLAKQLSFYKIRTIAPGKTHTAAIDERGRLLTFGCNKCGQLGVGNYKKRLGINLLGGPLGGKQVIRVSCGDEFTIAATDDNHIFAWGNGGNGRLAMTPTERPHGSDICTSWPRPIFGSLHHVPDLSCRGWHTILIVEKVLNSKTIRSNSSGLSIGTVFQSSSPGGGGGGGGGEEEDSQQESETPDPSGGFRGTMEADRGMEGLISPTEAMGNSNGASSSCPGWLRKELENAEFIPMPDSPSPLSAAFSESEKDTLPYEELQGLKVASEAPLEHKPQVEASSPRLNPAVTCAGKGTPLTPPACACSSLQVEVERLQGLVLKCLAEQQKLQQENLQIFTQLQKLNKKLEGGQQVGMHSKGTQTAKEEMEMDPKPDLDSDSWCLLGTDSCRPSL
Sequence of Ephrin type-B receptor 3 (Homo sapiens) (P54753 whole entry): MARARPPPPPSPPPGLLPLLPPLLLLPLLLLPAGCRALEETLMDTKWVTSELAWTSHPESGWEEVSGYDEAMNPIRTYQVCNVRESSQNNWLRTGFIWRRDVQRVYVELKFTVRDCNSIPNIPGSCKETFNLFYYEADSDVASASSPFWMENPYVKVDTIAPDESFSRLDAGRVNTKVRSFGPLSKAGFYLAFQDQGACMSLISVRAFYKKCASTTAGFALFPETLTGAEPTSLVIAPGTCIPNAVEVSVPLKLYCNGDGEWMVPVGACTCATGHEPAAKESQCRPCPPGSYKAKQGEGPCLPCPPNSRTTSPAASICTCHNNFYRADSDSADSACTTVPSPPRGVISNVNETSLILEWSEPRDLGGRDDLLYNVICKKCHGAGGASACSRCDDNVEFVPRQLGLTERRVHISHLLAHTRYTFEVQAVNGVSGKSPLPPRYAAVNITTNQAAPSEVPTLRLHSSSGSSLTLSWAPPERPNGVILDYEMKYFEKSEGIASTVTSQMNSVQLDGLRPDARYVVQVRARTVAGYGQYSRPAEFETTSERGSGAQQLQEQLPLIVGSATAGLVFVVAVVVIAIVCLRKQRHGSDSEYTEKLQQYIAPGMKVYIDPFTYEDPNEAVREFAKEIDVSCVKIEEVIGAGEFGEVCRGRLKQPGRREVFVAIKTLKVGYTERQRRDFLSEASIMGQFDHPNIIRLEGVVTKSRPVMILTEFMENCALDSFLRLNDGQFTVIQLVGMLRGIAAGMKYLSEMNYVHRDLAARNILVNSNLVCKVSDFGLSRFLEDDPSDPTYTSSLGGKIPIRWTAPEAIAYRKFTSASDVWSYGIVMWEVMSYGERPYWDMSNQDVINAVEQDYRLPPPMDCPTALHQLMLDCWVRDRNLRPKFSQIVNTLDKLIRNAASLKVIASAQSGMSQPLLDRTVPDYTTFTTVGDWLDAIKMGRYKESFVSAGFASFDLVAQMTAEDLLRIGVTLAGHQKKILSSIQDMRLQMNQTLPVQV
Sequence of Tyrosine-protein kinase JAK1 (Homo sapiens) (P23458 whole entry): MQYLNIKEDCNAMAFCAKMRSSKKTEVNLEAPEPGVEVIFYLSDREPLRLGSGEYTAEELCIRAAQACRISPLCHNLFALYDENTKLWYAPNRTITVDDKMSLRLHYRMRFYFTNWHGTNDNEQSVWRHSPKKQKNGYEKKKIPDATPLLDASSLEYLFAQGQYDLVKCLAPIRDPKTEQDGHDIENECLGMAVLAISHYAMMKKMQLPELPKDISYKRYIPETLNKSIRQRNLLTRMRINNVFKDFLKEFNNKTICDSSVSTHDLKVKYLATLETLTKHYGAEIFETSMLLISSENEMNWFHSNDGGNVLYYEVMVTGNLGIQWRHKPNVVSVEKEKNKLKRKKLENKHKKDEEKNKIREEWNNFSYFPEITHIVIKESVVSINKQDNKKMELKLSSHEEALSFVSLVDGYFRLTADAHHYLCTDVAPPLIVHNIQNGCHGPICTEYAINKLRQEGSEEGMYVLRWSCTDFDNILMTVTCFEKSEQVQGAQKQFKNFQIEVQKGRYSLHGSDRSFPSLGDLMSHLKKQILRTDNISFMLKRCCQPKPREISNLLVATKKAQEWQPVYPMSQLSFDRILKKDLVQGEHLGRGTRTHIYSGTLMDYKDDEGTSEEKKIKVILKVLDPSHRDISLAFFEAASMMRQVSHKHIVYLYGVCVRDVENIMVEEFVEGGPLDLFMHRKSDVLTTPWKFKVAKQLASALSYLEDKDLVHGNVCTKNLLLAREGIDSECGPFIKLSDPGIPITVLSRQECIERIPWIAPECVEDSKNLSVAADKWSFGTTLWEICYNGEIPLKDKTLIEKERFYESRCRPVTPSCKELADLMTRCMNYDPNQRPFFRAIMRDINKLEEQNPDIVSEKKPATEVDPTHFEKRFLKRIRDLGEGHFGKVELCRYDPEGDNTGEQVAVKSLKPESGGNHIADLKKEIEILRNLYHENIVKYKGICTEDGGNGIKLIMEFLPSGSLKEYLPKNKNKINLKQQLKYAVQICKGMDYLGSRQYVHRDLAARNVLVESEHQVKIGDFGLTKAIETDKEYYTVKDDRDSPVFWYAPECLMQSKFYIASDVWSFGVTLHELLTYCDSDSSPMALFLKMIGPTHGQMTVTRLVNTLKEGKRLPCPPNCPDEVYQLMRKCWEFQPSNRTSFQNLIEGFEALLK

| Structure (SMILES) | Activity [1] [%] | Activity [2] [%] | Activity [3] [%] | Activity [4] [%] | Activity [5] [%] | Activity [6] [%] | Activity [7] [%] | Activity [8] [%] | Activity [9] [%] | Activity [10] [%] | Activity [11] [%] | Activity [12] [%] | Activity [13] [%] | Activity [14] [%] | Activity [15] [%] | Activity [16] [%] | inhibition [17] | Activity [18] [%] |
| --- | --- | --- | --- | --- | --- | --- | --- | --- | --- | --- | --- | --- | --- | --- | --- | --- | --- | --- |
| C(=C\c1ccccc1)/C[N+]12CN3CN(CN(C3)C1)C2 | 93.4 to 95.1 | 88.4 to 92.3 | 92.5 to 93.7 | 87.8 to 90.1 | 92.3 to 93 | 93.6 to 94.9 | 94.1 to 96.4 | 92.4 to 92.6 | 91.9 to 93.1 | 90.5 to 93.8 | 80.5 to 87.2 | 92 to 97 | 94 to 96 | 95.8 to 96.8 | 93.3 to 94.9 | 96.2 to 96.9 | Dose-dependent effect | – |
| ClC/C=C/C[N+]12CN3CN(CN(C3)C1)C2 | 93.8 to 95.2 | 86.9 to 92.5 | – | – | 90.2 to 91.3 | – | 96 to 96.3 | 92.7 to 94.5 | 90.5 to 92 | – | 87.8 to 88.7 | 93.8 to 95.3 | 93 to 93.5 | 87.2 to 91.4 | 95.2 to 96 | 92.6 to 95.8 | Dose-dependent effect | 94 to 94.8 |
